Laboratory results: patent EP0671173A1, “Use of a tricyclic derivative for producing a medicament for the treatment of cognitive and memory disorders” (ADIR ET COMPAGNIE, priority 1994, dated 1995)

Experiments:
[1] = system: souris mâles de la lignée BALB/c; test: T-maze: acquisition and retention of a simple spatial discrimination in the mouse; format: in vivo; conditions: 10 mg/kg i.p. 30 minutes before the test; for Acquisition de la discrimination : Nombre de réponses correctes sur les 20 premiers essais de l'épreuve: day 3, 12 BALB/c mice per group; for Acquisition de la discrimination : Nombre de réponses correctes sur les 20 premiers essais de l'épreuve / Rétention de la discrimination : Essais au critère: mean ± standard error; for Rétention de la discrimination : Essais au critère: day 4 (24 h after acquisition), criterion 5/5; for Rétention : Réponses correctes sur les cinq premiers essais: placebo 3,0 ± 0,21
From the text: Comparaison des effets de la tianeptine et de l'isomère (+) de celle-ci sur l'alternance spontanée, l'acquisition et la rétention d'une discrimination spatiale simple (labyrinthe en T) chez la souris.
Le principe du test s'appuie sur la tendance innée qu'ont les mammifères confrontés à un choix entre deux directions à prendre, à aller explorer le lieu qui leur est le moins familier. Un animal placé plusieurs fois successivement à l'entrée d'un labyrinthe en T se dirigera de préférence vers le bras qu'il n'a pas visité précédemment. Pour que ce comportement apparaisse, il est évidemment nécessaire que l'animal se souvienne du dernier bras visité. Ce souvenir met en jeu la mémoire dite de travail. La souris est soumise à une phase d'apprentissage (acquisition) pendant laquelle elle doit choisir plusieurs fois, de suite entre les deux bras, jusq'uà ce qu'elle ait opté cinq fois de suite pour un bras déterminé par l'expérimentateur. Pour apprécier si l'animal a bien retenu ce qu'il a appris au cours de l'épreuve d'acquisition, il est replacé 24 heures plus tard dans la même situation. Le degré de rétention sera mesuré par le nombre d'épreuves subies avant la réussite de cinq essais consécutifs.
Animaux : 36 souris mâles de la lignée BALB/c, vierges de toute expérimentation et âgées de 14 à 16 semaines, sont utilisées. Elles sont placées, 15 jours avant le début des expériences, dans des cages individuelles (animalerie climatisée (22°C) et pourvue d'un cycle artificiel lumière-obscurité de 12 heures (7h ON)).
Appareil : C'est un labyrinthe en T construit en plexiglas de couleur grise. Le couloir central et les deux bras d'arrivée mesurent 35 cm de long, 10 cm de large et 20 cm de haut. Le compartiment de départ (10 x 12 cm) est séparé du couloir central par une porte à guillotine. L'entrée de chaque bras est également pourvue d'une porte. L'appareil utilisé est semi-automatique : l'alimentation des mangeoires, l'ouverture et la fermeture des portes sont commandées par un micro-ordinateur selon le protocole pré-établi.
Protocole : Toutes les épreuves se déroulent entre 9h et 16h et durant 4 jours (de J1 à J4) sans interruption. La ration alimentaire des animaux est réduite de façon à atteindre un poids corporel de 83-84 % du poids ad libitum pour les épreuves d'habituation (J1 et J2) et de 87-88 % lors des épreuves d'alternance et de discrimination spatiale (J3 et J4).
Habituation (J1-J2) : L'expérience proprement dite est précédée de deux séances d'habituation de 10 minutes (exploration libre, une séance par jour). L'animal est simplement placé dans l'appareil toutes portes ouvertes.
Alternances spontanées et acquisition de la discrimination (J3) : Ces deux épreuves ont lieu le lendemain sans interruption. Elles sont destinées à mesurer l'alternance (6 premiers essais) et la vitesse d'acquisition de la discrimination spatiale (essais suivants). Lors des 6 premiers essais, la nourriture est disposée à l'extrémité de chacun des deux bras. Lors de chaque essai, l'animal est placé dans le compartiment de départ pendant 30 secondes (intervalle entre essais). La porte donnant accès au couloir central est ouverte et la souris peut choisir entre les deux bras où elle reste enfermée pendant 30 secondes. On constate que l'animal normal alterne ses choix successifs (65 % d'alternance environ). Apartir du 6ème essai, la nourriture n'est plus disposée que dans un seul bras, toujours le même; le bras choisi est celui qui a été le moins visité au cours des 6 premiers essais. L'épreuve se poursuit alors jusqu'à ce que l'animal atteigne un critère de 5 bonnes réponses sur 5 essais consécutifs.
Rétention de la discrimination spatiale (J4) : Elle se déroule dans les mêmes conditions que l'acquisition (même bras renforcé) et se poursuit pendant un minimum de 10 essais ou, au-delà, jusqu'à l'atteinte du critère de 5/5. Le nombre d'essais est limité à 20. […]

[2] = system: souris mâles de la lignée BALB/c; conditions: 10 mg/kg, mouse; earlier results (Jaffard et coll., Behav. Pharmacol., 1991); cited from earlier work

SMILES	Acquisition de la discrimination : Nombre de réponses correctes sur les 20 premiers essais de l'épreuve [1]	Rétention de la discrimination : Essais au critère [1]	Rétention : Réponses correctes sur les dix premiers essais ([1]; day 4)	Rétention : Réponses correctes sur les cinq premiers essais ([1]; day 4)	alternance spontanée, acquisition et rétention d'une discrimination simple (labyrinthe en T) [2]
CN1c2ccccc2C(NCCCCCCC(=O)O)c2ccc(Cl)cc2S1(=O)=O (single isomer, unassigned; (+)) [Isomère (+), (+)7-[(3-chloro-6-méthyl-5,5-dioxo-6,11-dihydrodibenzo[c,f]-[1,2]-thiazepin-11-yl)amino]heptanoatede sodium]	14,83 ± 0,75	7,83 ± 0,74 essais	performances supérieures (p<0,02) à celles du groupe tianeptine	3,92 ± 0,15	
CN1c2ccccc2C(NCCCCCCC(=O)O)c2ccc(Cl)cc2S1(=O)=O (racemic) [Tianeptine, tianeptine]	12,75 ± 0,77	8,58 ± 0,60 essais		n'a pas d'effet	facilitait
